≈ marks a conversion by molar mass, not a printed value. Calls of active or inactive are those of the source. No cut-off for these calls is given here.
Legend:
Type in all cases: functional
Listeria monocytogenes [1] = experiment: Antibacterial activity against Listeria monocytogenes by CLSI M100-S18 method
Haemophilus influenzae [2] = experiment: Antibacterial activity against non-ciprofloxacin-susceptible Haemophilus influenzae by CLSI M7-A7 method
Streptococcus pneumoniae [3] = experiment: Antibacterial activity against non-levofloxacin susceptible Streptococcus pneumoniae by CLSI M100-S18 method
Streptococcus pneumoniae [4] = experiment: Antibacterial activity against levofloxacin-susceptible Streptococcus pneumoniae by CLSI M100-S18 method
Haemophilus influenzae [5] = experiment: Antibacterial activity against ciprofloxacin-susceptible Haemophilus influenzae by CLSI M7-A7 method
Streptococcus sanguinis [6] = experiment: Antibacterial activity against Streptococcus sanguinis assessed as percent susceptible isolates by CLSI M100-S18 method
Streptococcus salivarius [7] = experiment: Antibacterial activity against Streptococcus salivarius assessed as percent susceptible isolates by CLSI M100-S18 method
Streptococcus equinus [8] = experiment: Antibacterial activity against Streptococcus bovis assessed as percent susceptible isolates by CLSI M100-S18 method
Streptococcus anginosus [9] = experiment: Antibacterial activity against Streptococcus anginosus assessed as percent susceptible isolates by CLSI M100-S18 method
[10] = tested on: Streptococcus constellatus; experiment: Antibacterial activity against Streptococcus constellatus by CLSI M100-S18 method
Streptococcus equinus [11] = experiment: Antibacterial activity against Streptococcus bovis by CLSI M100-S18 method
Neisseria meningitidis [12] = experiment: Antibacterial activity against Neisseria meningitidis assessed as percent susceptible isolates by CLSI M7-A7 method
Streptococcus sp. = experiment: Antibacterial activity against Lancefield Streptococcus sp. group F by CLSI M100-S18 method
Haemophilus influenzae [13] = experiment: Antibacterial activity against ciprofloxacin-susceptible Haemophilus influenzae assessed as percent susceptible isolates by CLSI M7-A7 method
[14] = Antibacterial activity against Lancefield Streptococcus sp. 'group G' by CLSI M100-S18 method
[15] = tested on: Streptococcus intermedius; experiment: Antibacterial activity against Streptococcus intermedius by CLSI M100-S18 method
Streptococcus oralis [16] = experiment: Antibacterial activity against Streptococcus oralis by CLSI M100-S18 method
Streptococcus pyogenes = experiment: Antibacterial activity against Streptococcus pyogenes by CLSI M100-S18 method
Haemophilus influenzae [17] = experiment: Antibacterial activity against non-ciprofloxacin-susceptible Haemophilus influenzae assessed as percent susceptible isolates by CLSI M7-A7 method
Streptococcus mitis [18] = experiment: Antibacterial activity against Streptococcus mitis by CLSI M100-S18 method
[19] = tested on: Streptococcus intermedius; experiment: Antibacterial activity against Streptococcus intermedius assessed as percent susceptible isolates by CLSI M100-S18 method
[20] = tested on: Streptococcus constellatus; experiment: Antibacterial activity against Streptococcus constellatus assessed as percent susceptible isolates by CLSI M100-S18 method
Streptococcus anginosus [21] = experiment: Antibacterial activity against Streptococcus anginosus by CLSI M100-S18 method
Listeria monocytogenes [22] = experiment: Antibacterial activity against Listeria monocytogenes assessed as percent susceptible isolates by CLSI M100-S18 method
Streptococcus salivarius [23] = experiment: Antibacterial activity against Streptococcus salivarius by CLSI M100-S18 method
Streptococcus mitis [24] = experiment: Antibacterial activity against Streptococcus mitis assessed as percent susceptible isolates by CLSI M100-S18 method
[25] = Antibacterial activity against Lancefield Streptococcus sp. 'group C' by CLSI M100-S18 method
Streptococcus pneumoniae [26] = experiment: Antibacterial activity against levofloxacin susceptible Streptococcus pneumoniae assessed as percent susceptible isolates by CLSI M100-S18 method
Streptococcus pneumoniae [27] = experiment: Antibacterial activity against non-levofloxacin susceptible Streptococcus pneumoniae assessed as percent susceptible isolates by CLSI M100-S18 method
Streptococcus oralis [28] = experiment: Antibacterial activity against Streptococcus oralis assessed as percent susceptible isolates by CLSI M100-S18 method
Neisseria meningitidis [29] = experiment: Antibacterial activity against Neisseria meningitidis by CLSI M7-A7 method
Streptococcus sanguinis [30] = experiment: Antibacterial activity against Streptococcus sanguinis by CLSI M100-S18 method
Enterococcus faecalis [31] = experiment: Antibacterial activity against vancomycin- resistant Enterococcus faecalis assessed as percent susceptible isolates by CLSI M100-S18 method
Enterococcus faecium [32] = experiment: Antibacterial activity against vancomycin- resistant Enterococcus faecium by CLSI M100-S18 method
Enterococcus faecium [33] = experiment: Antibacterial activity against vancomycin- resistant Enterococcus faecium assessed as percent susceptible isolates by CLSI M100-S18 method
Enterococcus faecalis [34] = experiment: Antibacterial activity against vancomycin- resistant Enterococcus faecalis by CLSI M100-S18 method

Q: For CC1(C)S[C@@H]2[C@H](NC(=O)Cc3ccccc3)C(=O)N2[C@H]1C(=O)O [PENICILLIN G], which MIC50 (Listeria monocytogenes [1]) is on record?
A: Its MIC50 is 0.25 µg/mL (≈ 0.748 µM).

Q: And the MIC90 (Listeria monocytogenes [1])?
A: The MIC90 was 0.25 µg/mL (≈ 0.748 µM).

Q: What about the MIC50 (Haemophilus influenzae [2]) of the same compound?
A: Its MIC50 is 1 µg/mL (≈ 2.99 µM).

Q: What about the MIC90 (Haemophilus influenzae [2]) of the same compound?
A: Its MIC90 is 2 µg/mL (≈ 5.98 µM).

Q: What about the MIC50 (Streptococcus pneumoniae [3]) of the same compound?
A: Its MIC50 is 0.12 µg/mL (≈ 0.359 µM).

Q: What about the MIC90 (Streptococcus pneumoniae [3]) of the same compound?
A: Its MIC90 is 2 µg/mL (≈ 5.98 µM).

Q: And the MIC (Streptococcus pneumoniae [4])?
A: The MIC was no more than 0.06 µg/mL.

Q: And the MIC50 (Streptococcus pneumoniae [4])?
A: The MIC50 was no more than 0.06 µg/mL.

Q: And the MIC90 (Streptococcus pneumoniae [4])?
A: Its MIC90 is 0.5 µg/mL (≈ 1.5 µM).

Q: What about the MIC50 (Haemophilus influenzae [5]) of the same compound?
A: The MIC50 was 0.5 µg/mL (≈ 1.5 µM).

Q: And the MIC90 (Haemophilus influenzae [5])?
A: Its MIC90 is greater than 4 µg/mL.

Q: What about the Activity (Streptococcus sanguinis [6]) of the same compound?
A: The Activity was 53.2%.

Q: What about the Activity (Streptococcus salivarius [7]) of the same compound?
A: The Activity was 53.2%.

Q: And the Activity (Streptococcus equinus [8])?
A: Its Activity is 53.2%.

Q: What about the Activity (Streptococcus anginosus [9]) of the same compound?
A: Its Activity is 53.2%.

Q: What about the MIC50 [10] of the same compound?
A: Its MIC50 is 16 µg/mL (≈ 47.8 µM).

Q: What about the MIC90 [10] of the same compound?
A: Its MIC90 is 32 µg/mL (≈ 95.7 µM).

Q: And the MIC50 (Streptococcus equinus [11])?
A: Its MIC50 is 16 µg/mL (≈ 47.8 µM).

Q: What about the MIC90 (Streptococcus equinus [11]) of the same compound?
A: Its MIC90 is 32 µg/mL (≈ 95.7 µM).

Q: What about the Activity (Neisseria meningitidis [12]) of the same compound?
A: Its Activity is 50%.

Q: What about the MIC50 (Streptococcus sp.) of the same compound?
A: The MIC50 was 8 µg/mL (≈ 23.9 µM).

Q: What about the MIC90 (Streptococcus sp.) of the same compound?
A: The MIC90 was 16 µg/mL (≈ 47.8 µM).

Q: And the Activity (Haemophilus influenzae [13])?
A: Its Activity is “inactive”.

Q: And the MIC50 [14]?
A: Its MIC50 is 8 µg/mL (≈ 23.9 µM).

Q: And the MIC90 [14]?
A: The MIC90 was 16 µg/mL (≈ 47.8 µM).

Q: And the MIC50 [15]?
A: The MIC50 was 16 µg/mL (≈ 47.8 µM).

Q: And the MIC90 [15]?
A: The MIC90 was 32 µg/mL (≈ 95.7 µM).

Q: And the MIC50 (Streptococcus oralis [16])?
A: The MIC50 was 16 µg/mL (≈ 47.8 µM).

Q: And the MIC90 (Streptococcus oralis [16])?
A: Its MIC90 is 32 µg/mL (≈ 95.7 µM).

Q: What about the MIC (Streptococcus pyogenes) of the same compound?
A: The MIC was no more than 0.015 µg/mL.

Q: What about the MIC50 (Streptococcus pyogenes) of the same compound?
A: Its MIC50 is no more than 0.015 µg/mL.

Q: What about the MIC90 (Streptococcus pyogenes) of the same compound?
A: The MIC90 was no more than 0.015 µg/mL.

Q: And the Activity (Haemophilus influenzae [17])?
A: Its Activity is “inactive”.

Q: And the MIC50 (Streptococcus mitis [18])?
A: Its MIC50 is 16 µg/mL (≈ 47.8 µM).

Q: What about the MIC90 (Streptococcus mitis [18]) of the same compound?
A: Its MIC90 is 32 µg/mL (≈ 95.7 µM).

Q: And the Activity [19]?
A: The Activity was 53.2%.

Q: What about the Activity [20] of the same compound?
A: The Activity was 53.2%.

Q: And the MIC50 (Streptococcus anginosus [21])?
A: Its MIC50 is 0.06 µg/mL (≈ 0.179 µM).

Q: What about the MIC90 (Streptococcus anginosus [21]) of the same compound?
A: Its MIC90 is 1 µg/mL (≈ 2.99 µM).

Q: What about the Activity (Listeria monocytogenes [22]) of the same compound?
A: The Activity was 100%.

Q: What about the MIC50 (Streptococcus salivarius [23]) of the same compound?
A: The MIC50 was 16 µg/mL (≈ 47.8 µM).

Q: What about the MIC90 (Streptococcus salivarius [23]) of the same compound?
A: The MIC90 was 32 µg/mL (≈ 95.7 µM).

Q: What about the Activity (Streptococcus mitis [24]) of the same compound?
A: Its Activity is 53.2%.

Q: What about the MIC50 [25] of the same compound?
A: Its MIC50 is 8 µg/mL (≈ 23.9 µM).

Q: What about the MIC90 [25] of the same compound?
A: Its MIC90 is 16 µg/mL (≈ 47.8 µM).

Q: What about the Activity (Streptococcus pneumoniae [26]) of the same compound?
A: The Activity was 100%.

Q: What about the Activity (Streptococcus pneumoniae [27]) of the same compound?
A: The Activity was 100%.

Q: And the Activity (Streptococcus oralis [28])?
A: Its Activity is 53.2%.

Q: And the MIC (Neisseria meningitidis [29])?
A: The MIC was no more than 0.06 µg/mL.

Q: And the MIC50 (Neisseria meningitidis [29])?
A: The MIC50 was no more than 0.06 µg/mL.

Q: What about the MIC90 (Neisseria meningitidis [29]) of the same compound?
A: The MIC90 was 0.12 µg/mL (≈ 0.359 µM).

Q: And the MIC50 (Streptococcus sanguinis [30])?
A: The MIC50 was 16 µg/mL (≈ 47.8 µM).

Q: And the MIC90 (Streptococcus sanguinis [30])?
A: The MIC90 was 32 µg/mL (≈ 95.7 µM).

Q: With CN[C@H](CC(C)C)C(=O)N[C@H]1C(=O)N[C@@H](CC(N)=O)C(=O)N[C@H]2C(=O)N[C@H]3C(=O)N[C@H](C(=O)N[C@H](C(=O)O)c4cc(O)cc(O)c4-c4cc3ccc4O)[C@H](O)c3ccc(c(Cl)c3)Oc3cc2cc(c3O[C@@H]2O[C@H](CO)[C@@H](O)[C@H](O)[C@H]2O[C@H]2C[C@](C)(N)[C@H](O)[C@H](C)O2)Oc2ccc(cc2Cl)[C@H]1O [VANCOMYCIN] as the compound, how does the Activity (Enterococcus faecalis [31]) read?
A: The Activity was 80%.

Q: What about the MIC (Enterococcus faecium [32]) of the same compound?
A: Its MIC is no more than 0.5 µg/mL.

Q: What about the MIC50 (Enterococcus faecium [32]) of the same compound?
A: The MIC50 was no more than 0.5 µg/mL.

Q: What about the MIC90 (Enterococcus faecium [32]) of the same compound?
A: Its MIC90 is greater than 32 µg/mL.

Q: What about the Activity (Enterococcus faecium [33]) of the same compound?
A: Its Activity is 87.3%.

Q: And the MIC50 (Enterococcus faecalis [34])?
A: Its MIC50 is 1 µg/mL (≈ 0.69 µM).

Q: And the MIC90 (Enterococcus faecalis [34])?
A: Its MIC90 is greater than 32 µg/mL.
